Results taken from PubChem BioAssay (NCI).
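All cell lines were grown in 96-well plates and treated with compound for 48 hours. The concentration for 50% growth inhibition is given as GI50. TGI: concentration producing complete growth inhibition.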

What was measured:
Test in all cases: DTP human tumour cell line panel, 48 h
EKVX NSCLC = system: EKVX NSCLC
HCC-2998 colon = system: HCC-2998 colon
HCT-15 colon = system: HCT-15 colon
HL-60(TB) leukemia = system: HL-60(TB) leukemia
KM12 colon = system: KM12 colon
MCF7 breast = system: MCF7 breast
MDA-N = system: MDA-N
NCI-H522 lung = system: NCI-H522 lung
NCI/ADR-RES ovarian = system: NCI/ADR-RES ovarian
OVCAR-4 ovarian = system: OVCAR-4 ovarian
SF-268 CNS = system: SF-268 CNS
SF-539 CNS = system: SF-539 CNS
SK-MEL-28 melanoma = system: SK-MEL-28 melanoma
T-47D breast = system: T-47D breast
UACC-257 melanoma = system: UACC-257 melanoma
UACC-62 melanoma = system: UACC-62 melanoma

| Compound | TGI (EKVX NSCLC) | TGI (HCC-2998 colon) | TGI (HCT-15 colon) | TGI (HL-60(TB) leukemia) | TGI (KM12 colon) | TGI (MCF7 breast) | TGI (MDA-N) | TGI (NCI-H522 lung) | TGI (NCI/ADR-RES ovarian) | TGI (OVCAR-4 ovarian) | TGI (SF-268 CNS) | TGI (SF-539 CNS) | TGI (SK-MEL-28 melanoma) | TGI (T-47D breast) | TGI (UACC-257 melanoma) | TGI (UACC-62 melanoma) | GI50 (HCC-2998 colon) | GI50 (HL-60(TB) leukemia) | GI50 (OVCAR-4 ovarian) | GI50 (SK-MEL-28 melanoma) |
| --- | --- | --- | --- | --- | --- | --- | --- | --- | --- | --- | --- | --- | --- | --- | --- | --- | --- | --- | --- | --- |
| Cc1c(F)c(N)c2c(=O)cc(-c3ccc(N)c(F)c3)oc2c1F | 54.7 µM | > 100 µM | > 100 µM | > 100 µM | > 100 µM | 4.39 µM | > 89 µM | 30.3 µM | 42.4 µM | 48.8 µM | 76.7 µM | 32.3 µM | > 95.2 µM | 16 µM | > 100 µM | 31 µM |  |  |  |  |
| CC(=O)c1cccc(Nc2nc3ccc(Cl)cc3c3[nH]c4ccccc4c23)c1 | 14.9 µM | > 100 µM | > 100 µM | > 100 µM | > 100 µM | > 21.9 µM | > 100 µM | 16.4 µM | 79.5 µM | 21.5 µM | 36.9 µM | 30.1 µM | > 100 µM | 50.6 µM | > 88.2 µM | 24.4 µM | 14.2 µM | > 100 µM | 3.56 µM | 16.5 µM |
| Cn1c(Cl)cn2c3nc4ccccc4nc3c(=O)c(C#N)c12 | > 100 µM | > 67.8 µM | > 100 µM | > 100 µM | > 100 µM | > 100 µM | > 100 µM | > 100 µM | > 100 µM | > 100 µM | > 100 µM | > 100 µM | > 100 µM | > 100 µM | > 100 µM | > 100 µM |  |  |  |  |
| O=C(Cc1ccc(Cl)cc1)Nc1ccc2oc(-c3ccccc3)nc2c1 | > 100 µM | > 100 µM | > 100 µM | > 100 µM | > 100 µM | > 100 µM | > 100 µM | > 100 µM | > 100 µM | > 100 µM | > 100 µM | > 100 µM | > 100 µM | > 100 µM | > 100 µM | > 100 µM |  |  |  |  |
| c1ccc2c(c1)cc1c3[nH]c4ccccc4c3ccn21 | > 10 µM | > 10 µM | > 10 µM | > 10 µM | > 10 µM | > 10 µM | > 10 µM | > 10 µM | > 10 µM | > 10 µM | > 10 µM | > 10 µM | > 10 µM | > 10 µM | > 10 µM | > 10 µM |  |  |  |  |
| NC1CC(Cl)c2c(Cl)sc(Cl)c21 (configuration not stated) | > 100 µM | > 100 µM | > 100 µM | > 100 µM | > 100 µM | > 100 µM | > 100 µM | 0.049 µM | > 100 µM | > 100 µM | > 100 µM | > 100 µM | > 100 µM | > 100 µM | > 100 µM | > 100 µM |  |  |  |  |
| Nc1[nH]c(=S)c2c(N)n[nH]c2c1C(=O)Nc1ccccc1 | > 100 µM | > 100 µM | > 100 µM | > 100 µM | > 100 µM | > 100 µM | > 100 µM | > 100 µM | > 100 µM | > 100 µM | > 100 µM | > 100 µM | > 100 µM | > 100 µM | > 100 µM | > 100 µM |  |  |  |  |
| O=S(Nc1ccccc1)c1ccc(Cl)c(Cl)c1 (configuration not stated) | > 100 µM | > 100 µM | > 100 µM | > 100 µM | 33.1 µM | > 100 µM | > 100 µM | > 100 µM | > 100 µM | > 100 µM | 82.9 µM | 53 µM | > 100 µM | 42.4 µM | > 100 µM | 64.6 µM |  |  |  |  |
| OC1[C@H](O)CN(OCc2ccccc2)C[C@@H]1O (some centres not stated) | > 100 µM | > 100 µM | > 100 µM | > 100 µM | > 100 µM | > 100 µM | > 100 µM | > 100 µM | > 100 µM | > 100 µM | > 100 µM | > 100 µM | > 100 µM | > 100 µM | > 100 µM | > 100 µM |  |  |  |  |
| CCCCN(Cc1ccccc1)C(=NC#N)N(Cc1ccccc1)Cc1ccccc1 | > 100 µM | > 75.7 µM | 77.2 µM | > 100 µM | 54 µM | > 100 µM | 59.9 µM | 40.6 µM | 59.7 µM | > 100 µM | > 100 µM | 46.8 µM | > 100 µM | > 100 µM | 50.7 µM | 74.7 µM |  |  |  |  |
| O=P1(c2ccccc2)C(c2ccccc2)=CC=C1c1ccccc1 | > 100 µM | 64.8 µM | 77.3 µM | 9.31 µM | 50.1 µM | 66.6 µM | 62.1 µM | 65.2 µM | > 100 µM | > 100 µM | > 100 µM | > 100 µM | > 100 µM | > 100 µM | > 100 µM | > 100 µM |  |  |  |  |
| CC1(C)C/C(=N/O)c2c(nc3ccc4ccccc4c3c2-c2ccc(Cl)cc2)C1 | 29.7 µM | 43.8 µM | 41.6 µM | 26.1 µM | > 100 µM | 24.1 µM | > 100 µM | 28.6 µM | 39.3 µM | 30.4 µM | 30.1 µM | 36.4 µM | > 100 µM | 34.2 µM | 91.2 µM | 37.1 µM |  |  |  |  |
| CN1C(=O)C(c2c[nH]c3ccccc23)N(C)C(=O)C1c1c[nH]c2ccccc12 (configuration not stated) | > 100 µM | > 100 µM | > 100 µM | > 100 µM | > 100 µM | > 100 µM | > 100 µM | > 100 µM | > 100 µM | > 100 µM | > 100 µM | > 100 µM | > 100 µM | > 100 µM | > 100 µM | > 100 µM |  |  |  |  |
